Results: patent publication US20250195536A1, “BICYCLOOCTANE KRAS INHIBITORS” (Incyte Corporation, priority 2023, published 2025)

Experiments:
[1] = molecular target: KRAS G12D (Homo sapiens, UniProt P01116, G12D); experiment: GDP-GTP exchange assay (KRAS G12D); type: biochemical; details: bodipy-GDP/GppNHp exchange with SOS1; 4 h pre-incubation, 2 h reaction;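 note: one dagger IC50 up to 100 nM and two daggers above 100 nM up to 1 μM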
How it was run: (§1)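 IC50 came from a four-parameter fit of fluorescence loss (485/520 nm) as SOS1 (150 nM) swapped bodipy-GDP for GppNHp (500 μM) on 2.5 nM KRAS, final concentrations. Compounds were pre-incubated 4 h at r.t. (pH 7.5 Hepes, 10 mM MgCl2); exchange ran 2 h (G12D) or 3 h (G12V).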

[2] = Caco2 assay (permeability, Papp A-B); type: in vitro ADME; details: human, Caco-2, absorptive direction (A-B), 50 μM test compound, 4% BSA in receiver
How it was run: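 Absorptive (A-B) Papp: 50 μM test compound in HBSS added to apical side of 22-25-day Caco-2 monolayers (TEER 300 Ω·cm^2), receiver buffer containing 4% BSA. After 120 min at 37 °C, 5% CO2, both sides analysed by LCMS; Papp calculated from flux rate normalized to area and donor amount.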

[3] = molecular target: KRAS G12V (Homo sapiens, UniProt P01116, G12V); experiment: GDP-GTP exchange assay (KRAS G12V); type: biochemical; details: bodipy-GDP/GppNHp exchange with SOS1; 3 h incubation after GppNHp-SOS1;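 note: one dagger IC50 up to 100 nM and two daggers above 100 nM up to 1 μM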
Sequence of KRAS G12V (P01116 1-188 isoform P01116-2 G12V): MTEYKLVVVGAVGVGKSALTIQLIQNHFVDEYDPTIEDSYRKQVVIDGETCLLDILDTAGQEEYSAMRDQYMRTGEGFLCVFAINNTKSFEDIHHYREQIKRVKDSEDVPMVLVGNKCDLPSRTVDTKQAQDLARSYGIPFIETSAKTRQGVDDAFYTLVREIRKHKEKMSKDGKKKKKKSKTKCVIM
How it was run: as §1

Sequence of KRAS G12D (P01116 1-188 isoform P01116-2 G12D): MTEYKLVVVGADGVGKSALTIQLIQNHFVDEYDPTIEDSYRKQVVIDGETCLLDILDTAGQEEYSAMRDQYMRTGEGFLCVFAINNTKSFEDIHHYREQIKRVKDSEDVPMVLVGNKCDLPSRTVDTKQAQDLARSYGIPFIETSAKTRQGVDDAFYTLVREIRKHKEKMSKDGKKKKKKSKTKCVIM

G12D_exchange (KRAS_G12D exchange assay IC50) [1]	Papp A→B at 120 min, 50 μM [2] [×10⁻⁶ cm/s]	G12V_exchange (KRAS_G12V exchange assay IC50) [3]	Compound
†	≤ 0.5	†	Cc1nc2c(F)c(-c3cccc(Cl)c3Cl)c(CCC#N)cc2c2c1cc([C@H]1[C@H]3C[C@H](CN(c4ccnc(C(C)(C)O)c4)C3)N1C(=O)C1CC1)n2[C@H]1[C@H]2CN[C@@H]1C2 (atropisomer, axis not shown; (Ra)) [Example 62, 3-((Ra)-1-((1R,4R,5S)-2-azabicyclo[2.1.1]hexan-5-yl)-2-((1S,5R,7R)-6-(cyclopropanecarbonyl)-3-(2-(2-hydroxypropan-2-yl)pyridin-4-yl)-3,6-diazabicyclo[3.2.1]octan-7-yl)-7-(2,3-dichlorophenyl)-6-fluoro-4-methyl-1H-pyrrolo[3,2-c]quinolin-8-yl)propanenitrile]
†	≤ 0.5	†	Cc1nc2c(F)c(-c3cccc(Cl)c3Cl)c(CCC#N)cc2c2c1cc([C@H]1[C@H]3C[C@H](CN(c4cnn(C)c(=O)c4)C3)N1C(=O)C1CC1)n2[C@H]1[C@H]2CN[C@@H]1C2 (atropisomer, axis not shown; (Ra)) [Example 65, 3-((Ra)-1-((1R,4R,5S)-2-azabicyclo[2.1.1]hexan-5-yl)-2-((1S,5R,7R)-6-(cyclopropanecarbonyl)-3-(1-methyl-6-oxo-1,6-dihydropyridazin-4-yl)-3,6-diazabicyclo[3.2.1]octan-7-yl)-7-(2,3-dichlorophenyl)-6-fluoro-4-methyl-1H-pyrrolo[3,2-c]quinolin-8-yl)propanenitrile]
†	≤ 0.5	†	CCn1ccc(N2C[C@@H]3C[C@H](C2)N(C(=O)C2CC2)[C@H]3c2cc3c(C)nc4c(F)c(-c5cccc(Cl)c5Cl)c(CCC#N)cc4c3n2[C@H]2[C@H]3CN[C@@H]2C3)cc1=O (atropisomer, axis not shown; (Ra)) [Example 67, 3-((Ra)-1-((1R,4R,5S)-2-azabicyclo[2.1.1]hexan-5-yl)-2-((1S,5R,7R)-6-(cyclopropanecarbonyl)-3-(1-ethyl-2-oxo-1,2-dihydropyridin-4-yl)-3,6-diazabicyclo[3.2.1]octan-7-yl)-7-(2,3-dichlorophenyl)-6-fluoro-4-methyl-1H-pyrrolo[3,2-c]quinolin-8-yl)propanenitrile]
†	≤ 0.5	†	Cc1nc2c(F)c(-c3cccc(Cl)c3Cl)c(CCC#N)cc2c2c1cc([C@H]1[C@H]3C[C@H](CN(c4ccn(C(C)C)c(=O)c4)C3)N1C(=O)C1CC1)n2[C@H]1[C@H]2CN[C@@H]1C2 (atropisomer, axis not shown; (Ra)) [Example 68, 3-((Ra)-1-((1R,4R,5S)-2-azabicyclo[2.1.1]hexan-5-yl)-2-((1S,5R,7R)-6-(cyclopropanecarbonyl)-3-(1-isopropyl-2-oxo-1,2-dihydropyridin-4-yl)-3,6-diazabicyclo[3.2.1]octan-7-yl)-7-(2,3-dichlorophenyl)-6-fluoro-4-methyl-1H-pyrrolo[3,2-c]quinolin-8-yl)propanenitrile]
†	≤ 0.5	†	Cc1nc2c(F)c(-c3cccc(Cl)c3Cl)c(CCC#N)cc2c2c1cc([C@H]1[C@H]3C[C@H](CN(c4cc(=O)n(C)cn4)C3)N1C(=O)C1CC1)n2[C@H]1[C@H]2CN[C@@H]1C2 (atropisomer, axis not shown; (Ra)) [Example 69, 3-((Ra)-1-((1R,4R,5S)-2-azabicyclo[2.1.1]hexan-5-yl)-2-((1S,5R,7R)-6-(cyclopropanecarbonyl)-3-(1-methyl-6-oxo-1,6-dihydropyrimidin-4-yl)-3,6-diazabicyclo[3.2.1]octan-7-yl)-7-(2,3-dichlorophenyl)-6-fluoro-4-methyl-1H-pyrrolo[3,2-c]quinolin-8-yl)propanenitrile]
†	≤ 0.5	†	Cc1nc2c(F)c(-c3cccc(Cl)c3Cl)c(CCC#N)cc2c2c1cc([C@H]1[C@H]3C[C@H](CN(c4ccn5cc(C(F)(F)F)nc5c4)C3)N1C(=O)C1CC1)n2[C@H]1[C@H]2CN[C@@H]1C2 (atropisomer, axis not shown; (Ra)) [Example 70, 3-((Ra)-1-((1R,4R,5S)-2-azabicyclo[2.1.1]hexan-5-yl)-2-((1S,5R,7R)-6-(cyclopropanecarbonyl)-3-(2-(trifluoromethyl)imidazo[1,2-a]pyridin-7-yl)-3,6-diazabicyclo[3.2.1]octan-7-yl)-7-(2,3-dichlorophenyl)-6-fluoro-4-methyl-1H-pyrrolo[3,2-c]quinolin-8-yl)propanenitrile]
†	≤ 0.5	†	Cc1nc2c(F)c(-c3cccc(Cl)c3Cl)c(CCC#N)cc2c2c1cc([C@H]1[C@H]3C[C@H](CN(c4ccn5nccc5c4)C3)N1C(=O)C1CC1)n2[C@H]1[C@H]2CN[C@@H]1C2 (atropisomer, axis not shown; (Ra)) [Example 71, 3-((Ra)-1-((1R,4R,5S)-2-azabicyclo[2.1.1]hexan-5-yl)-2-((1S,5R,7R)-6-(cyclopropanecarbonyl)-3-(pyrazolo[1,5-a]pyridin-5-yl)-3,6-diazabicyclo[3.2.1]octan-7-yl)-7-(2,3-dichlorophenyl)-6-fluoro-4-methyl-1H-pyrrolo[3,2-c]quinolin-8-yl)propanenitrile]
†	≤ 0.5	†	Cc1nc2c(F)c(-c3cccc(Cl)c3Cl)c(CCC#N)cc2c2c1cc([C@H]1[C@H]3C[C@H](CN(c4ccn5ncnc5c4)C3)N1C(=O)C1CC1)n2[C@H]1[C@H]2CN[C@@H]1C2 (atropisomer, axis not shown; (Ra)) [Example 72, 3-((Ra)-2-((1S,5R,7R)-3-([1,2,4]triazolo[1,5-a]pyridin-7-yl)-6-(cyclopropanecarbonyl)-3,6-diazabicyclo[3.2.1]octan-7-yl)-1-((1R,4R,5S)-2-azabicyclo[2.1.1]hexan-5-yl)-7-(2,3-dichlorophenyl)-6-fluoro-4-methyl-1H-pyrrolo[3,2-c]quinolin-8-yl) propanenitrile]
†	≤ 0.5	†	Cc1nc2c(F)c(-c3cccc(Cl)c3Cl)c(CCC#N)cc2c2c1cc([C@H]1[C@H]3C[C@H](CN(c4ccoc(=O)c4)C3)N1C(=O)C1CC1)n2[C@H]1[C@H]2CN[C@@H]1C2 (atropisomer, axis not shown; (Ra)) [Example 73, 3-((Ra)-1-((1R,4R,5S)-2-azabicyclo[2.1.1]hexan-5-yl)-2-((1S,5R,7R)-6-(cyclopropanecarbonyl)-3-(2-oxo-2H-pyran-4-yl)-3,6-diazabicyclo[3.2.1]octan-7-yl)-7-(2,3-dichlorophenyl)-6-fluoro-4-methyl-1H-pyrrolo[3,2-c]quinolin-8-yl)propanenitrile]
